US12133916B2, “Process for producing an andrographolide carrier system” (priority 2021, dated 2024)

Experiment: Water solubility / water-dispersability comparison (FIG. 1)
Type: physicochemical
Conditions: dispersed in water, visual

water-dispersability (FIG. 1): insoluble in water
Compound: C=C1CC[C@@H]2[C@](C)(CO)[C@H](O)CC[C@@]2(C)[C@@H]1C/C=C1/C(=O)OC[C@H]1O [known 99% andrographolide, Andrographolide]
